# Measured values published in US20220229068A1, “DETECTION OF PROTEIN TO PROTEIN INTERACTIONS” (THE GOVERNING COUNCIL OF THE UNIVERSITY OF TORONTO, priority 2019, published 2022).
# Tested on: MAPK1/ELK1 interaction
# Assay: SIMPL kinase/substrate interactions (ELISA and Western blot)
# Assay type: cell-based, human
# Conditions: kinase-IN / substrate-IC, stimulation
# Experimental: Cell culture and treatment. HEK 293 and HeLa cell lines were generous gifts from Dr. J. Moffat. HEK 293 Flp-In T-Rex cell line was a generous gift from Dr. A. C. Gingras. These cells were grown in DMEM supplemented with 10% fetal calf serum (Life Technologies). PC9 cell line was a generous gift from Dr. P. Jannes and they were grown in RPMI 1640 medium supplemented with 10% fetal calf serum. For ELISA assay, cells were seeded in 96 well (Sarstedt AG & Co) or 384 well plates (Greiner Bio-One) with 15,000 (96 well) or 5,000 (384 well) cells per well. Cells were transfected with various plasmids with polyethylenimine (PEI) Max (Polysciences). Expression in HEK 293 Flp-In T-Rex cells was induced by treating the cells with tetracycline (1 μg/ml) for 6-16 hrs. […] Stable cell lines were created according to the manual of Flp-In T-REx (Invitrogen). Briefly, plasmid containing both bait and prey DNA and pOG44 plasmid (1:10 ratio) were cotransfected into HEK 293 Flp-In T-Rex cells.
# Western blot analysis and immunoprecipitation. Cells were lysed in buffer H (Triton X 100 1%, β-glycerophosphate pH7.3 50 mM, EGTA 1.5 mM, EDTA 1 mM, orthovanadate 0.1 mM, DTT 1 mM supplemented with protease inhibitors (Roche)). […]
# ELISA. […] The plate was washed 3 times with PBST followed by chemiluminescence reading using SuperSignal ELISA Pico substrate (ThermoFisher). […]
substance,measurement,value
Tetradecanoylphorbol acetate [TPA],MAPK1/ELK1 interaction after MAPK1 activation,enhanced MAPK1/ELK1 interaction
